Assay results reported in BigSolDB 2.1.

CCc1occc(=O)c1O
solubility (mole fraction) (in ethanol, 293.15 K): 0.0599
solubility (mole fraction) (in ethanol, 298.15 K): 0.0798
solubility (mole fraction) (in ethanol, 303.15 K): 0.0974
solubility (mole fraction) (in ethanol, 308.15 K): 0.133
solubility (mole fraction) (in ethanol, 313.15 K): 0.174
solubility (mole fraction) (in ethanol, 318.15 K): 0.227
solubility (mole fraction) (in ethanol, 323.15 K): 0.291
solubility (mole fraction) (in ethanol, 328.15 K): 0.367
solubility (mole fraction) (in ethanol, 333.15 K): 0.459
solubility (mole fraction) (in water, 293.15 K): 0.0021
solubility (mole fraction) (in water, 298.15 K): 0.0023
solubility (mole fraction) (in water, 303.15 K): 0.0027
solubility (mole fraction) (in water, 308.15 K): 0.0033
solubility (mole fraction) (in water, 313.15 K): 0.004
solubility (mole fraction) (in water, 318.15 K): 0.0051
solubility (mole fraction) (in water, 323.15 K): 0.0067
solubility (mole fraction) (in water, 328.15 K): 0.0089
solubility (mole fraction) (in water, 333.15 K): 0.0126
